Results taken from ChEMBL document CHEMBL5352478, “Novel pyridine-containing histone deacetylase inhibitors strongly arrest proliferation, induce apoptosis and modulate miRNAs in cancer cells” (Eur J Med Chem, 2023).

Key:
Histone deacetylase 1 = Histone deacetylase 1 (Homo sapiens, UniProt Q13547)
Histone deacetylase 3 = Histone deacetylase 3 (Homo sapiens, UniProt O15379)
Histone deacetylase 4 = Histone deacetylase 4 (Homo sapiens, UniProt P56524)
[1] = molecular target: T1, Protein deacetylase HDAC6 (Homo sapiens, UniProt Q9UBN7)
T1 sequence (Q9UBN7 whole entry): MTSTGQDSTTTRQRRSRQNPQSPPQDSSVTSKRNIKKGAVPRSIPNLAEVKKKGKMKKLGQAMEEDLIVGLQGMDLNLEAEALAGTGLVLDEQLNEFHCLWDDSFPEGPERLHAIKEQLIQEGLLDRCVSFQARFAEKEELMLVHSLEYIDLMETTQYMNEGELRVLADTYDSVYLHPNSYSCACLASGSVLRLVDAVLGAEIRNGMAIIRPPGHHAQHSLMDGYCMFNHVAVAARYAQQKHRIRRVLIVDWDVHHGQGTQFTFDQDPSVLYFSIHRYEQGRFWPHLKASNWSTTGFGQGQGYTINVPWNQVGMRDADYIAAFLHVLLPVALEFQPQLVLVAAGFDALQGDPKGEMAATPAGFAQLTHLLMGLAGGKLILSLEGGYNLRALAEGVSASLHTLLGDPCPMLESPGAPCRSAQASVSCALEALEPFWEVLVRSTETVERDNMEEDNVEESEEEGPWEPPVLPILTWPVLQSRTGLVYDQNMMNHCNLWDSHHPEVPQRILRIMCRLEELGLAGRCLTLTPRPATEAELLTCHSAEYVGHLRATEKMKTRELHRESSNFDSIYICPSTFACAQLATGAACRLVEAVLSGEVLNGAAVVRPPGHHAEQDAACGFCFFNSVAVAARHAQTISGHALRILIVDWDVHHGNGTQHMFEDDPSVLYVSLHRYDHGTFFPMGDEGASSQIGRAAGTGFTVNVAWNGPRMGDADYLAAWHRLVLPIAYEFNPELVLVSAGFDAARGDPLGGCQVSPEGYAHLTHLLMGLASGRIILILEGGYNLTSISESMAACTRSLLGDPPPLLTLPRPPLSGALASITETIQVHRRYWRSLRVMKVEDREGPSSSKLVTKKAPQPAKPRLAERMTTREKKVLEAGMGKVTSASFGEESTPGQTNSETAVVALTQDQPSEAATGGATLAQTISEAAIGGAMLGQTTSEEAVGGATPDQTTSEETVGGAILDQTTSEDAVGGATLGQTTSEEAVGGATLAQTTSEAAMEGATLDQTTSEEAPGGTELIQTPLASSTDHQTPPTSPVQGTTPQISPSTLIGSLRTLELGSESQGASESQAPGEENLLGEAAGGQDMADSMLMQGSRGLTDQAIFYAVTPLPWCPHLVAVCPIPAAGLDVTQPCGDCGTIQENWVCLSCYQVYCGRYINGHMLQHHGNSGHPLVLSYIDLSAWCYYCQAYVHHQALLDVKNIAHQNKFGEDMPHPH

Histone deacetylase 8 [2] = molecular target: T2, Histone deacetylase 8 (Homo sapiens, UniProt Q9BY41)
T2 sequence (Q9BY41 whole entry): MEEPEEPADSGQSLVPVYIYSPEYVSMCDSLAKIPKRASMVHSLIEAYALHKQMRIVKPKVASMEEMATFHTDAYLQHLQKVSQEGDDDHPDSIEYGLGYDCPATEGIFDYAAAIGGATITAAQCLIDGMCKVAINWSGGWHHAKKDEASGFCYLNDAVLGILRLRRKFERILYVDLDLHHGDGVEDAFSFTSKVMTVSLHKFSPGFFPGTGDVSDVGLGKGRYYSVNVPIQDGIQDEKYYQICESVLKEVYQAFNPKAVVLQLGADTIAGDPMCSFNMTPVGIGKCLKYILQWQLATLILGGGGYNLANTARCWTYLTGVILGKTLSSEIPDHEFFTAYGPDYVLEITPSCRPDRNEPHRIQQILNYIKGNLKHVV

HCT-116 = experiment: cells; assay type: functional, cell-based; conditions: Homo sapiens, HCT-116, 72 h
A549 = experiment: cells; assay type: functional, cell-based; conditions: Homo sapiens, A549, 72 h
K562 = experiment: cells; assay type: functional, cell-based; conditions: Homo sapiens, K562, 72 h
Histone deacetylase 8 [3] = molecular target: T2, Histone deacetylase 8; remark: listed apart in the source
OCI-AML-3 = experiment: Antiproliferative activity against human OCI-AML-3 cells incubated for 48 hrs; assay type: functional, cell-based; conditions: OCI-AML-3, 48 h
[4] = Antiproliferative activity against human IMS-M2 cells incubated for 48 hrs; assay type: functional, cell-based; conditions: IMS-M2, 48 h
OCI-AML2 = experiment: Antiproliferative activity against human OCI-AML2 cells incubated for 48 hrs; assay type: functional, cell-based; conditions: OCI-AML2, 48 h
MV4-11 = experiment: Antiproliferative activity against human MV4-11 cells incubated for 48 hrs; assay type: functional, cell-based; conditions: MV4-11, 48 h
Kasumi 1 = experiment: Antiproliferative activity against human Kasumi 1 cells incubated for 48 hrs; assay type: functional, cell-based; conditions: Kasumi 1, 48 h
U-937 [5] = experiment: Antiproliferative activity against human U-937 cells incubated for 48 hrs; assay type: functional, cell-based; conditions: U-937, 48 h
HL-60 = experiment: Antiproliferative activity against human HL-60 cells incubated for 48 hrs; assay type: functional, cell-based; conditions: HL-60, 48 h
KARPAS-299 = experiment: Antiproliferative activity against human KARPAS-299 cells incubated for 48 hrs; assay type: functional, cell-based; conditions: KARPAS-299, 48 h
NB-4 = experiment: Antiproliferative activity against human NB4 cells incubated for 48 hrs; assay type: functional, cell-based; conditions: NB-4, 48 h
U-937 [6] = experiment: Induction of cell cycle arrest in human U-937 cells assessed as accumulation of cells in pre-G1 phase at 5 uM for 24 hrs by PI staining based flow cytometric analysis; assay type: functional
U-937 [7] = experiment: Induction of cell cycle arrest in human U-937 cells assessed as accumulation of cells in G1 phase at 1 to 5 uM for 48 hrs by PI staining based flow cytometric analysis; assay type: functional; conditions: dose 1-5 µM

Chain of Histone deacetylase 1 (Q13547 whole entry): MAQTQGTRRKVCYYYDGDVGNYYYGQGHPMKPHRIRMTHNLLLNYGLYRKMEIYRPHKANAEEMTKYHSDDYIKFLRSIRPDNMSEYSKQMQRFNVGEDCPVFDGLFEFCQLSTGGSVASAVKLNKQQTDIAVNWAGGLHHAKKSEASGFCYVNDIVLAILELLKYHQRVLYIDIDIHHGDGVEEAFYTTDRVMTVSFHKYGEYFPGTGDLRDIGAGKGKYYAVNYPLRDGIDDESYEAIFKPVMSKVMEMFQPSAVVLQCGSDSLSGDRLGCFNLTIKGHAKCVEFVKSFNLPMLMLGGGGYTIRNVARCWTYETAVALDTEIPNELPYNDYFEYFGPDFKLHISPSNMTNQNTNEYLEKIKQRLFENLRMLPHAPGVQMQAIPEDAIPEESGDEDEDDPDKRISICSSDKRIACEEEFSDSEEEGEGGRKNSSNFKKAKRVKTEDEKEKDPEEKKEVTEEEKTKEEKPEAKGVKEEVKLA
Chain of Histone deacetylase 3 (O15379 whole entry): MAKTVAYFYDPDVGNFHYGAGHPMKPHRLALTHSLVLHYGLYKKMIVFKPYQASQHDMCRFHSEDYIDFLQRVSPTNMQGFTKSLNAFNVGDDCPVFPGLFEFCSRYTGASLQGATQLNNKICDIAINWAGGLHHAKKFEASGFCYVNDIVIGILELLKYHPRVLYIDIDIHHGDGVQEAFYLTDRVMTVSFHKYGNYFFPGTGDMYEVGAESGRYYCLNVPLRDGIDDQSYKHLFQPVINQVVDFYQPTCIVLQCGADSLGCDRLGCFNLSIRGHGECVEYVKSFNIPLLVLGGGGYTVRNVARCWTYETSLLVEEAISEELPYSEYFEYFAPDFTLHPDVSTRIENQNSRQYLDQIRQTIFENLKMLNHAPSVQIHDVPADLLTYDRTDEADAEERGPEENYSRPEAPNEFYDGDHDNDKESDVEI
Chain of Histone deacetylase 4 (P56524 whole entry): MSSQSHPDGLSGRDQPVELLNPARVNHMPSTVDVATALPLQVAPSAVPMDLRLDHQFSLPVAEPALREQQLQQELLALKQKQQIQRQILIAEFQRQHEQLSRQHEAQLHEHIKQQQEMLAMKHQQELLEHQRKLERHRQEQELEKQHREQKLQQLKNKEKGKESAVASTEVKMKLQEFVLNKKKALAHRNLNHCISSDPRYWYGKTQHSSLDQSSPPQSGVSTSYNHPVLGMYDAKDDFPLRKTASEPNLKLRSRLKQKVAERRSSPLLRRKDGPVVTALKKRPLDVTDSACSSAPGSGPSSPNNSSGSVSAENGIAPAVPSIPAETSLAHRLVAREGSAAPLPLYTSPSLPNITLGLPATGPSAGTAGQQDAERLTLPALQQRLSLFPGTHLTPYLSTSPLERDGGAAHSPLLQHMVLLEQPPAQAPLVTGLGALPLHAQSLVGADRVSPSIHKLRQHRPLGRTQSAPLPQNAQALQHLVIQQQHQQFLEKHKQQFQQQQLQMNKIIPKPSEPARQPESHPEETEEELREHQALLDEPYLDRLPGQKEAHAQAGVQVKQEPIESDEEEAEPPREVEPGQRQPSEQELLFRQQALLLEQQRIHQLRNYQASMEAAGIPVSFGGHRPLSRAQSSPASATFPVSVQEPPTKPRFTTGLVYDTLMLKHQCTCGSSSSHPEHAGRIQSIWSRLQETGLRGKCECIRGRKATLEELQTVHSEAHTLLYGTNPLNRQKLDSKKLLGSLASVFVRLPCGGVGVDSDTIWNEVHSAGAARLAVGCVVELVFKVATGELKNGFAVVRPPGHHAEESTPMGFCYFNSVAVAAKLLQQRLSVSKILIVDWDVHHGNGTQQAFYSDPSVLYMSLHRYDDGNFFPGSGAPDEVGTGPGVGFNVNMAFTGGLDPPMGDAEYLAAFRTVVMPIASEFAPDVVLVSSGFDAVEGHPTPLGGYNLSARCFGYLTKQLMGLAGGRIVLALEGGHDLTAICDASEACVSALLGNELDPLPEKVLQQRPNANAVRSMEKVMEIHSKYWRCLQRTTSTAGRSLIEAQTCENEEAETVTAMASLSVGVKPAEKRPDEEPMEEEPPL

Structure (SMILES) | IC50 (Histone deacetylase 1) [nM] | IC50 (Histone deacetylase 3) [nM] | IC50 (Histone deacetylase 4; read-out: IC50) [nM] | IC50 ([1]; read-out: IC50) [nM] | IC50 (Histone deacetylase 8 [2]) [nM] | IC50 (Histone deacetylase 4) | IC50 [1] | IC50 (HCT-116) [nM] | IC50 (A549) [nM] | IC50 (K562) [nM] | further results
O=C(Cc1ccccc1)Nc1ccc(C(=O)NO)nc1 | 3000 | 2060 | 82400 | 174 | 1090 | – | – | – | – | – | –
O=C(Cc1cccc2ccccc12)Nc1ccc(C(=O)NO)nc1 | 2850 | 1390 | 30700 | 58 | 1810 | – | – | – | – | – | –
Nc1ccccc1NC(=O)/C=C/c1ccc(NC(=O)Cc2ccccc2)cn1 | 108 | 224 | – | – | 31400 | Not Active | Not Active | – | – | – | –
CC(C)C(C(=O)Nc1ccc(/C=C/C(=O)Nc2ccccc2N)nc1)c1ccccc1 (centres undefined) | 151 | 319 | – | – | 43100 | Not Active | Not Active | 4380 | 5690 | 2890 | –
CC(C)C(C(=O)Nc1ccc(C(=O)Nc2ccccc2N)nc1)c1ccccc1 (centres undefined) | 330 | 488 | – | – | 75200 | Not Active | Not Active | – | – | – | –
CC(C)C(C(=O)Nc1ccc(/C=C/C(=O)NO)nc1)c1ccccc1 (centres undefined) | 81 | 28 | 16000 | 10 | 168 | – | – | 260 | 590 | 180 | –
O=C(/C=C/c1ccc(NC(=O)Cc2ccc3ccccc3c2)cn1)NO | 376 | 168 | 17600 | 112 | 1010 | – | – | 210 | 600 | 130 | –
CCC(C(=O)Nc1ccc(/C=C/C(=O)NO)nc1)c1ccccc1 (centres undefined) | 77 | 36 | 17100 | 11 | 104 | – | – | – | – | – | –
Nc1ccccc1NC(=O)/C=C/c1ccc(NC(=O)Cc2cccc3ccccc23)cn1 | 63 | 264 | – | – | – | Not Active | Not Active | 8280 | 9430 | 3140 | IC50 (Histone deacetylase 8 [3]): Not Active
O=C(NO)c1ccc(NC(=O)C(Cc2ccccc2)c2ccccc2)cn1 (centres undefined) | 783 | 153 | 39200 | 16 | 1090 | – | – | 1050 | 2660 | 490 | –
CCC(C(=O)Nc1ccc(/C=C/C(=O)Nc2ccccc2N)nc1)c1ccccc1 (centres undefined) | 143 | 268 | – | – | 35600 | Not Active | Not Active | – | – | – | –
Nc1ccccc1NC(=O)/C=C/c1ccc(NC(=O)Cc2ccc3ccccc3c2)cn1 | 203 | 414 | – | – | 77100 | Not Active | Not Active | 3230 | 7430 | 1700 | –
CCC(C(=O)Nc1ccc(C(=O)NO)nc1)c1ccccc1 (centres undefined) | 1490 | 777 | 77900 | 51 | 964 | – | – | 1680 | 5470 | 1780 | –
Nc1ccccc1NC(=O)c1ccc(NC(=O)Cc2ccccc2)cn1 | 201 | 248 | – | – | 77100 | Not Active | Not Active | 560 | 1350 | 540 | –
Nc1ccccc1NC(=O)/C=C/c1ccc(NC(=O)C(Cc2ccccc2)c2ccccc2)cn1 (centres undefined) | 496 | 603 | – | – | – | Not Active | Not Active | 2740 | 4300 | 1860 | IC50 (Histone deacetylase 8 [3]): Not Active
CC(C)C(C(=O)Nc1ccc(C(=O)NO)nc1)c1ccccc1 (centres undefined) | 1010 | 681 | 63200 | 41 | 882 | – | – | 1310 | 3750 | 1040 | –
O=C(Cc1ccc2ccccc2c1)Nc1ccc(C(=O)NO)nc1 | 94000 | 207 | 15800 | 123 | 976 | – | – | – | – | – | –
Nc1ccccc1NC(=O)c1ccc(NC(=O)Cc2cccc3ccccc23)cn1 | 129 | 289 | – | – | 98400 | Not Active | Not Active | – | – | – | –
O=C(/C=C/c1ccc(NC(=O)Cc2ccccc2)cn1)NO | 68 | 78 | 19300 | 13 | 183 | – | – | 880 | 2980 | 910 | –
CCC(C(=O)Nc1ccc(C(=O)Nc2ccccc2N)nc1)c1ccccc1 (centres undefined) | 321 | 433 | – | – | 66200 | Not Active | Not Active | – | – | – | –
Nc1ccccc1NC(=O)c1ccc(CNc2nccc(-c3cccnc3)n2)cc1 [MOCETINOSTAT] | – | – | – | – | – | – | – | – | – | – | IC50 (OCI-AML-3): 1790 nM; IC50 [4]: 657 nM; IC50 (OCI-AML2): 1560 nM; IC50 (MV4-11): 190 nM; IC50 (Kasumi 1): 151 nM; IC50 (U-937 [5]): 1370 nM; IC50 (HL-60): 418 nM; IC50 (KARPAS-299): 4150 nM; IC50 (NB-4): 406 nM
O=C(CCCCCCC(=O)Nc1ccccc1)NO [VORINOSTAT] | – | – | – | – | – | – | – | – | – | – | Activity (U-937 [6]): 10%; Activity (U-937 [7]): 70%
